Experimental findings from ChEMBL document CHEMBL3400000, “The discovery of potent agonists for GPR88, an orphan GPCR, for the potential treatment of CNS disorders” (Bioorg Med Chem Lett, 2015) are described below.

Each structure is given as a SMILES string.

The target in the assay is G protein-coupled receptor 88 (Homo sapiens, UniProt Q9GZN0). Nature of the assay: Agonist activity at GPR88 (unknown origin) transfected into cells assessed as cAMP accumulation by HTRF assay. In kind it is functional. Background: Cyclic AMP is a second messenger, typically raised through Gs and lowered through Gi signalling.
G protein-coupled receptor 88, sequence (Q9GZN0 whole entry): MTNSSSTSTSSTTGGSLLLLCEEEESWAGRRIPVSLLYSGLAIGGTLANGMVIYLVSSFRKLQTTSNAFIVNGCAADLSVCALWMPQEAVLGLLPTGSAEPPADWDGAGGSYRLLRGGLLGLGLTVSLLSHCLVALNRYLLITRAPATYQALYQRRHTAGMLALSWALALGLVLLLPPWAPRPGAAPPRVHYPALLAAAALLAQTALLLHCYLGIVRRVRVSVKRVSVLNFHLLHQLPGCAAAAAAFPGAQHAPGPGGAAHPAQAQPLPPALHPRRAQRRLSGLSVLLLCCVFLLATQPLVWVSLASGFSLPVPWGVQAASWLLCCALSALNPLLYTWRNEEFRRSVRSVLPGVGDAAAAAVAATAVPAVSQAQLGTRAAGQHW
As to `CO[C@H](C)[C@H](N)CN(C(=O)[C@@H]1C[C@H]1c1ccccc1)c1ccc(-c2ccccc2)cc1`, the EC50 turned out to be 0.68 nM.
With `CC[C@H](C)[C@H](N)CN(C(=O)[C@@H]1C[C@H]1c1ccccc1Cl)c1ccc(-c2ccccc2)cc1`, the EC50 is greater than 25000 nM.
As for `CC[C@H](C)[C@@H](CN(C(=O)[C@@H]1C[C@H]1c1ccccc1)c1ccc(-c2ccccc2)cc1)NC(C)=O`, the figure is 5.8 nM; as for `CC[C@H](C)[C@H](N)CN(C(=O)[C@@H]1C[C@H]1c1ccc(C#N)cc1)c1ccc(-c2ccccc2)cc1`, greater than 25000 nM; as for `CC[C@H](C)[C@H](N)CN(C(=O)[C@@H]1C[C@H]1c1ccccc1)c1ccc(-c2ccc(CC(=O)OC)cc2)cc1`, 66 nM.
As for `CC[C@H](C)[C@H](N)CN(C(=O)[C@@H]1C[C@H]1c1cc(F)cc(F)c1)c1ccc(-c2ccccc2)cc1`, the figure is 960 nM; as for `CC(C)C[C@H](N)CN(C(=O)[C@@H]1C[C@H]1c1ccccc1)c1ccc(-c2ccccc2)cc1` (racemic), 880 nM.
As for `CC[C@H](C)[C@H](N)CN(C(=O)[C@@H]1C[C@H]1c1ccccc1)c1ccc(-c2ccc(CCC(=O)OC)cc2)cc1`, the figure is 110 nM; as for `CC[C@H](C)[C@H](N)CN(C(=O)[C@@H]1C[C@H]1c1ccccc1)c1ccc(-c2ccc(OC(C)C)cc2)cc1`, 72 nM; as for `COc1ccc(-c2ccc(N(C[C@@H](N)CC(C)C)C(=O)[C@@H]3C[C@H]3c3ccccc3)cc2)cc1`, 330 nM.
As to `CCCc1ccc(-c2ccc(N(C[C@@H](N)[C@@H](C)CC)C(=O)[C@@H]3C[C@H]3c3ccccc3)cc2)cc1`, the EC50 came out at 61 nM.
As for `CC[C@H](C)[C@H](N)CN(C(=O)[C@@H]1C[C@H]1c1ncc(C)s1)c1ccc(-c2ccccc2)cc1`, the figure is 1300 nM; as for `CC[C@H](C)[C@H](N)CN(C(=O)[C@@H]1C[C@H]1c1ccccc1)c1ccc(-c2ccc(Oc3ccccc3)cc2)cc1`, 94 nM; as for `CC[C@H](C)[C@H](N)CN(C(=O)[C@@H]1C[C@H]1c1ccc(F)cc1F)c1ccc(-c2ccccc2)cc1`, 1300 nM.
Take `CC(C)C[C@H](N)CN(C(=O)[C@@H]1C[C@H]1c1ccccc1)c1ccc(C2=CCCCC2)cc1`: the EC50 amounted to 1200 nM.
As for `Cc1ccc(-c2ccc(N(C[C@@H](N)CC(C)C)C(=O)[C@@H]3C[C@H]3c3ccccc3)cc2)cc1`, the figure is 360 nM; as for `CC(C)C[C@H](N)CN(C(=O)[C@@H]1C[C@H]1c1ccccc1)c1ccc(C2=CCCC2)cc1`, 1200 nM.
As for `CC[C@H](C)[C@H](N)CN(C(=O)[C@@H]1C[C@H]1c1nc(C)c(C)s1)c1ccc(-c2ccccc2)cc1`, the figure is 3600 nM; as for `COc1cccc(-c2ccc(N(C[C@@H](N)CC(C)C)C(=O)[C@@H]3C[C@H]3c3ccccc3)cc2)c1`, 1100 nM; as for `CC[C@H](C)[C@H](N)CN(C(=O)[C@@H]1C[C@H]1c1ccc(F)cc1)c1ccc(-c2ccccc2)cc1`, 600 nM.
As for `CC[C@H](C)[C@H](N)CN(C(=O)[C@@H]1C[C@H]1c1ccccc1)c1ccc(-c2ccc(C(=O)N(C)C)cc2)cc1`, the figure is 980 nM; as for `NC1(CN(C(=O)[C@@H]2C[C@H]2c2ccccc2)c2ccc(-c3ccccc3)cc2)CCCC1`, 0.57 nM; as for `CC[C@H](C)[C@H](N)CN(C(=O)[C@@H]1C[C@H]1c1cccc(C)c1)c1ccc(-c2ccccc2)cc1`, 1200 nM.
Regarding `CC[C@H](C)[C@H](N)CN(C(=O)[C@@H]1C[C@H]1c1ccccc1)c1ccc(-c2ccc(CN)cc2)cc1`, the concentration giving a half-maximal response (EC50) is greater than 30000 nM.
Regarding `CC(C)C[C@H](N)CN(C(=O)[C@@H]1C[C@H]1c1ccccc1)c1ccc(-c2cccc(C#N)c2)cc1`, the EC50 was 4500 nM.
For the molecule `CC[C@H](C)[C@H](N)CN(C(=O)[C@@H]1C[C@H]1c1ccccn1)c1ccc(-c2ccc(COC)cc2)cc1`, the EC50 came to 15 nM.
As for `CCc1ccc(-c2ccc(N(C[C@@H](N)[C@@H](C)CC)C(=O)[C@@H]3C[C@H]3c3ccccc3)cc2)cc1`, the figure is 44 nM; as for `CC(C)CCNCCN(C(=O)[C@@H]1C[C@H]1c1ccccc1)c1ccc(-c2ccccc2)cc1`, 5.1 nM.
Turning to `CC[C@H](C)[C@H](N)CN(C(=O)[C@H]1C[C@@H]1c1ccccn1)c1ccc(-c2ccc(COC)cc2)cc1`, the concentration for a half-maximal effect (EC50) is 1200 nM.
As for `CC[C@H](C)[C@H](N)CN(C(=O)[C@@H]1C[C@H]1c1ccccc1)c1ccc(-c2ccc(COC(C)(C)C)cc2)cc1`, the figure is 280 nM; as for `COc1ccccc1-c1ccc(N(C[C@@H](N)CC(C)C)C(=O)[C@@H]2C[C@H]2c2ccccc2)cc1`, 3200 nM.
For the molecule `CC[C@H](C)[C@H](N)CN(C(=O)[C@@H]1C[C@H]1c1ccccc1)c1ccc(-c2ccc(C(F)(F)F)cc2)cc1`, the EC50 is 340 nM.
Regarding `CC(C)C[C@H](N)CN(C(=O)[C@@H]1C[C@H]1c1ccccc1)c1ccc(C2=CCCCCC2)cc1`, the EC50 was determined as 2100 nM.
As for `CC(C)C[C@H](N)CN(C(=O)[C@@H]1C[C@H]1c1ccccc1)c1ccc(-c2ccc(C#N)cc2)cc1`, the figure is 670 nM; as for `CC[C@H](C)[C@H](N)CN(C(=O)[C@@H]1C[C@H]1c1ccccn1)c1ccc(-c2ccc(OC(C)C)cc2)cc1`, 3.5 nM.
As for `CC[C@H](C)[C@H](N)CN(C(=O)[C@@H]1C[C@H]1c1cccc(Cl)c1)c1ccc(-c2ccccc2)cc1`, the figure is 2200 nM; as for `CC[C@H](C)[C@H](N)CN(C(=O)[C@@H]1C[C@H]1c1ccncc1)c1ccc(-c2ccccc2)cc1`, 1500 nM.
Consider `CCC(C)CNCCN(C(=O)[C@@H]1C[C@H]1c1ccccc1)c1ccc(-c2ccccc2)cc1` (some centres not stated), for which the 50% effective concentration (EC50) was 4.7 nM.
On to `CC[C@H](C)[C@H](N)CN(C(=O)[C@@H]1C[C@H]1c1cc(F)ccc1F)c1ccc(-c2ccccc2)cc1`, for which the EC50 stood at 770 nM.
As for `CC(C)C[C@H](N)CN(C(=O)[C@@H]1C[C@H]1c1ccccc1)c1ccc(-c2ccccc2F)cc1`, the figure is 1600 nM; as for `CC[C@H](C)[C@H](N)CN(C(=O)[C@@H]1C[C@H]1c1cccc(C#N)c1)c1ccc(-c2ccccc2)cc1`, 1600 nM.
For the molecule `CC(C)C[C@H](N)CN(C(=O)[C@@H]1C[C@H]1c1ccccc1)c1cccc(-c2ccccc2)c1`, the EC50 was 23000 nM.
For `CC[C@H](C)[C@H](N)CN(C(=O)[C@@H]1C[C@H]1c1ccccc1)c1ccc(-c2ccc(N)cc2)cc1`, the EC50 worked out at 320 nM.
As for `N[C@H](CN(C(=O)[C@@H]1C[C@H]1c1ccccc1)c1ccc(-c2ccccc2)cc1)C1CCCCC1`, the figure is 0.66 nM; as for `Cc1ccccc1-c1ccc(N(C[C@@H](N)CC(C)C)C(=O)[C@@H]2C[C@H]2c2ccccc2)cc1`, 3400 nM; as for `CC[C@H](C)[C@H](N)CN(C(=O)[C@@H]1C[C@H]1c1ccccc1)c1ccc(-c2ccc(C(C)(C)C)cc2)cc1`, 750 nM.
As for `CC[C@H](C)[C@H](N)CN(C(=O)[C@@H]1C[C@H]1c1ccccc1)c1ccc(-c2ccc(CN(C)C)cc2)cc1`, the figure is 460 nM.
In the case of `CC(C)(C)[C@H](N)CN(C(=O)[C@@H]1C[C@H]1c1ccccc1)c1ccc(-c2ccccc2)cc1`, the concentration for a half-maximal effect (EC50) stood at 11 nM.
As for `CC[C@H](C)[C@H](N)CN(C(=O)[C@@H]1C[C@H]1c1ccccc1)c1ccc(-c2ccc(CO)cc2)cc1`, the figure is 1100 nM; as for `CC[C@H](C)[C@H](N)CN(C(=O)[C@@H]1C[C@H]1C1CCCCC1)c1ccc(-c2ccccc2)cc1`, greater than 25000 nM.
As for `CC[C@H](C)[C@H](N)CN(C(=O)[C@@H]1C[C@H]1c1ccccc1)c1ccc(-c2ccc(NS(C)(=O)=O)cc2)cc1`, the figure is 1200 nM; as for `CC[C@H](C)[C@H](N)CN(C(=O)[C@@H]1C[C@H]1c1ccccn1)c1ccc(-c2ccccc2)cc1`, 130 nM.
As for `CC(C)[C@H](N)CN(C(=O)[C@@H]1C[C@H]1c1ccccc1)c1ccc(-c2ccccc2)cc1`, the figure is 1.1 nM.
Consider `Cc1cccc(-c2ccc(N(C[C@@H](N)CC(C)C)C(=O)[C@@H]3C[C@H]3c3ccccc3)cc2)c1`, for which the EC50 stood at 1200 nM.
Consider `CCOC(=O)c1ccc(-c2ccc(N(C[C@@H](N)[C@@H](C)CC)C(=O)[C@@H]3C[C@H]3c3ccccc3)cc2)cc1`, for which the EC50 amounted to 260 nM.
`CC(C)C[C@H](N)CN(C(=O)[C@@H]1C[C@H]1c1ccccc1)c1ccc(-c2ccc(Cl)cc2)cc1`: the EC50 is 640 nM.
For `O=C([C@@H]1C[C@H]1c1ccccc1)N(CCNCC1CCCC1)c1ccc(-c2ccccc2)cc1`, the EC50 amounted to 2.5 nM.
As for `CC[C@H](C)[C@H](N)CN(C(=O)[C@@H]1C[C@H]1c1ccccc1)c1ccc(-c2ccc(OC(F)(F)F)cc2)cc1`, the figure is 170 nM; as for `CC(C)C[C@H](N)CN(C(=O)[C@@H]1C[C@H]1c1ccccc1)c1ccc(-c2ccccc2Cl)cc1`, 3800 nM; as for `CC(C)C[C@H](N)CN(C(=O)[C@@H]1C[C@H]1c1ccccc1)c1ccccc1-c1ccccc1`, 6200 nM.
For `CC(C)C[C@H](N)CN(C(=O)[C@@H]1C[C@H]1c1ccccc1)c1ccc(-c2cccs2)cc1`, the EC50 was 1500 nM.
Take `CC[C@H](C)[C@H](N)CN(C(=O)[C@@H]1C[C@H]1c1ccccc1)c1ccc(-c2ccc(CNC)cc2)cc1`: the EC50 was 6400 nM.
As to `CC[C@H](C)[C@H](N)CN(C(=O)[C@@H]1C[C@H]1c1ccc(OC)cc1)c1ccc(-c2ccccc2)cc1`, the EC50 was greater than 25000 nM.
As for `CC[C@H](C)[C@H](N)CN(C(=O)[C@@H]1C[C@H]1c1csc(C)n1)c1ccc(-c2ccccc2)cc1`, the figure is 1500 nM; as for `CC(C)C[C@H](N)CN(C(=O)[C@@H]1C[C@H]1c1ccccc1)c1ccc(-c2ccncc2)cc1`, 13000 nM; as for `CC[C@H](C)[C@H](N)CN(C(=O)[C@@H]1C[C@H]1c1cccs1)c1ccc(-c2ccccc2)cc1`, 360 nM.
As for `CC[C@H](C)[C@H](N)CN(C(=O)[C@@H]1C[C@H]1c1cncnc1)c1ccc(-c2ccccc2)cc1`, the figure is 19000 nM; as for `O=C([C@@H]1C[C@H]1c1ccccc1)N(CC1CCCNC1)c1ccc(-c2ccccc2)cc1` (some centres not stated), 10 nM.
In the case of `CC(C)C[C@H](N)CN(C(=O)[C@@H]1C[C@H]1c1ccccc1)c1ccc(-c2cccnc2)cc1`, the concentration giving a half-maximal response (EC50) amounted to 10000 nM.
As for `CC[C@H](C)[C@H](N)CN(C(=O)[C@@H]1C[C@H]1c1ccccc1)c1ccc(-c2ccccc2)cc1`, the figure is 230 nM; as for `CCC(CC)C(N)CCN(C(=O)[C@@H]1C[C@H]1c1ccccc1)c1ccc(-c2ccccc2)cc1` (some centres not stated), 2 nM; as for `CC(C)C[C@H](N)CN(C(=O)C(C)Cc1ccccc1)c1ccc(-c2ccccc2)cc1` (some centres not stated), 1.2 nM.

A word on the EC50: it is the midpoint of the concentration-response curve.
